Like-named read-outs stand apart in the source and are kept apart here.
Tested on: L. donovani IRFP axenic amastigotes
Experiment: Primary single-concentration screening on axenic amastigotes, growth inhibition at 72 h
Type: cell-based, Leishmania donovani
Details: axenic amastigotes; for Growth Inhibition (%) at 72h, 1 µM_Exp1 / Growth Inhibition (%) at 72h, 1 µM_Exp2 / inhibition at 1 µM: 1 µM; for Growth Inhibition (%) at 72h, 10 µM_Exp1 / Growth Inhibition (%) at 72h, 10 µM_Exp2 / inhibition at 10 µM: 10 µM; for inhibition at 1 µM / inhibition at 10 µM: Leishmania donovani
[1] = experiment 1, 72 h, read-out: Growth Inhibition (%) at 72h, 1 µM_Exp1
[2] = experiment 2, 72 h, read-out: Growth Inhibition (%) at 72h, 1 µM_Exp2
[3] = experiment 1, 72 h, read-out: Growth Inhibition (%) at 72h, 10 µM_Exp1
[4] = experiment 2, 72 h, read-out: Growth Inhibition (%) at 72h, 10 µM_Exp2

SMILES | Growth Inhibition (%) at 72h, 1 µM_Exp1 (experiment 1, 72 h) | Growth Inhibition (%) at 72h, 1 µM_Exp2 (experiment 2, 72 h) | Growth Inhibition (%) at 72h, 10 µM_Exp1 (experiment 1, 72 h) | Growth Inhibition (%) at 72h, 10 µM_Exp2 (experiment 2, 72 h) | inhibition at 1 µM [1] | inhibition at 1 µM [2] | inhibition at 10 µM [3] | inhibition at 10 µM [4]
Br.CN1[C@H]2C[C@H](OC(=O)[C@H](CO)c3ccccc3)C[C@@H]1[C@@H](O)C2 [Anisodamine (hydrobromide)] | -15.73% | 4.55% | 80.63% | 11.58% | – | – | – | –
CN1[C@@H](CC(=O)c2ccccc2)CCC[C@H]1CC(=O)c1ccccc1 [Lobelanine] | -73.70% | 10.47% | 75.56% | 20.66% | – | – | – | –
O=C(O)CNCC(=O)O [Iminodiacetic acid] | – | – | – | – | -16.6% | -73% | -16.9% | 79.9%
CCCCC/C=C\C/C=C\CCCCCCCC(=O)NCc1ccccc1 [N-Benzyllinoleamide] | 23.06% | -24.6% | 99.77% | 99.86% | – | – | – | –
CC[C@@]1(O)C(=O)OCc2c1cc1n(c2=O)Cc2cc3c(OC)cccc3nc2-1 [9-Methoxycamptothecin] | 64.49% | 73.97% | 96.02% | 94.80% | – | – | – | –
CC[C@H]1CN2CCc3cc(OC)c(OC)cc3[C@@H]2C[C@@H]1C[C@H]1NCCc2cc(O)c(OC)cc21.Cl.Cl [Cephaeline (dihydrochloride)] | -15.97% | -74.54% | 96.96% | 92.99% | – | – | – | –
CC[C@@]1(O)C(=O)OCc2c1cc1n(c2=O)Cc2cc3c(N)cccc3nc2-1 [9-Aminocamptothecin] | – | – | – | – | -3.99% | 62% | 74.7% | 89.1%
CCc1ccc(O)c2cc3c(nc12)-c1cc2c(c(=O)n1C3)COC(=O)[C@]2(O)CC [12-Ethyl-9-hydroxycamptothecin] | 22.17% | 56.54% | 70.30% | 62.49% | – | – | – | –
O=C1N[C@@H]2C(=C[C@H](O)[C@@H](O)[C@H]2O)c2cc3c(c(O)c21)OCO3 [Narciclasine] | -12.26% | -86.55% | 84.56% | 93.45% | – | – | – | –
Cc1c2ccncc2c(C)c2c1[nH]c1ccccc12.Cl [Ellipticine (hydrochloride)] | 36.30% | -10.32% | 98.68% | 97.67% | – | – | – | –
O=C(/C=C/C=C/c1ccc2c(c1)OCO2)N1CCCCC1 [Piperine] | – | – | – | – | 38.3% | 17.5% | -7.31% | 75.2%
O=S(=O)([O-])O.c1c2c(cc3c1OCO3)-c1cc3ccc4c(c3c[n+]1CC2)OCO4 [Coptisine (Sulfate)] | -9.12% | -56.10% | 71.50% | 83.90% | – | – | – | –
Cc1ncc(CO)c(CO)c1O.Cl [Pyridoxine (hydrochloride)] | 6.77% | -86.02% | 79.17% | 65.78% | – | – | – | –
COc1cc2c(cc1OC)-c1c(C)c3ccc(OC)c(OC)c3c[n+]1CC2.O=[N+]([O-])[O-] [Dehydrocorydaline (nitrate)] | 27.42% | -14.19% | 82.98% | 66.56% | – | – | – | –
CCCCCCCCC(=O)NCc1ccc(O)c(OC)c1 [Nonivamide] | – | – | – | – | 10.9% | -30.7% | 101% | 93.3%

Reference: article PMC12608155, “Discovery of Potential Antileishmanial Compounds Through Phenotypic Screening of an Alkaloid Library” (Molecules, 2025)
